The subject of test [1] is rat-derived ACAT. Description: Inhibitory effects on rat-derived ACAT (Test 1). The format is biochemical. Conditions: crude enzyme from microsome protein fractions of rat liver, (14C)-oleoyl-CoA substrate, 37°C. The method, then: To test effects on ACAT, a reaction was conducted in vitro to form (^14C)-cholesteryl oleate from endogeneous cholesterol in the presence of (^14C)-oleoyl-CoA as a substrate by using a crude enzyme prepared from microzome protein fractions of a rat liver.
The reaction mixture had the following composition: 20 µℓ of microsome protein (1.83 mg/mℓ), 20 µℓ of (^14C)-oleoyl-CoA (5 µCi/mℓ, BSA: 96 nmol/mℓ), 106 µℓ of 100 mM phosphate buffer (containing 5 mM of dithiothreitol, pH 7.4) and a sample dissolved in 4 µℓ of methanol or dimethyl sulfoxide; 150 µℓ in total.
The reaction was conducted at 37°C. After an elapse of a predetermined reaction time (18 minutes in general), a 2:1 mixture of chloroform and methanol (5.65 mℓ) was added to terminate the reaction. A 0.04 N aquous solution of hydrochloric acid (0.98 mℓ) and as a carrier, cholesteryl oleate were added, followed by extraction for 20 minutes on a shaking apparatus. The mixture was then allowed to stand overnight in a cold dark place. On the following day, the separated lower chloroform layer was extracted in its entirety and was dried under a nitrogen gas stream. The remaining upper layer was added with the lower layer (5.65 mℓ) of the Folch's partition solution, and was extracted again. After the mixture was allowed to stand overnight in a dark place, the lower layer was drawn in its entirety. This lower layer was combined with the lower chloroform layer fraction, which had already been dried to solid, and the mixture was then dried to solid.
The solid was then dissolved in chlorofrom (200 µℓ), and the solution was coated in its entirety on a G60 plate (aluminum sheet) for silica gel thin layer chromatography. After the solid was developedover 10 cm with a 10:190 mixture of diethyl ether and petroleum ether, autoradiography was conducted and the formation of (^14C)-colesteryl oleate was confirmed. This section was then cut off. The radioactivity of each sample was measured by subjecting it to liquid scintillation counting for 5 minutes in toluene or was measured for 30 minutes by a "Betascope" (manufactured by BETA-GEN INC. The results so obtained are shown in Table 1. Table 1

Test [2] has as its system J774.1 strain, an established cell line of mouse macrophage. Briefly: Inhibitory effects on the accumulation of cholesterol esters in macrophage (Test 2). The format is cell-based. Conditions: J774.1 mouse macrophage, 12 hours incubation with cholesterol liposomes. The protocol: Inhibitory effects on the accumulation of cholesterol esters in macrophage were tested using J774.1 strain, an established cell line of mouse macrophage.
Metabolism of LDL in endothelial cells or smooth muscle cells causes downregulation of the LDL receptor by excess free cholesterol in the cells, but in a macrophage, uptake of modified lDL takes place via a scavenger receptor. As no regulation is applied to this pathway, cholesterol esters progressively accumulate without any limitation.
It was therefore studied whether or not corydaline would inhibit intracellular accumulation of cholesterol esters by having liposomes, which were formed of […] cholesterol and phosphatidylcholine, uptaken in macrophage cells and then causing them to act on acyl-CoA:cholesterol acyltransferase which existed on rough-surfaced endoplasmic reticula.
The macrophage cells were incubated for 2 days under 5% CO2 on an RPMI 1640 medium (product of NISSUI PHARMACEUTICAL CO., LTD.) which had been added with 10% fetal bovine serum, penicilin (50 U/mℓ) and streptomycin (50 µg/mℓ). Trypsinization was then conducted, and cells attached to the bottom of each well were peeled off and formulated into a cell suspension. The cells were washed with a fresh supply of the above-described culture medium, and the cell solution was then seeded at 2 x 10^6 cells/mℓ on a 24-well multiple well plate ("25820-24", product of CORNING INC.). After incubation at 37°C under 5% CO2 for 37 hours, the culture medium was replaced with a fresh supply of the above-described culture medium and, after a 0.3 M glucose solution (40 µℓ) with cholesterol [80 µg; containing 0.4 µCi of (^3H)-cholesterol] and phosphatidylcholine (160 µg) contained therein and a methanol solution (10 µℓ)with a test sample dissolved therein were added, incubation was conducted for 12 hours. These procedures were carried out aseptically.
After completion of the incubation, cells attached to each bottom were washed 5 times with a serum-free RPMI 1640 medium by a graduated pipet, and isopropanol (1 mℓ) was added to extract intracellular cholesterol and formed cholesterol esters. The extract was coated in its entirety on a silica gel thin layer chromatography ("Art 5553", product of MERCK & Co., INC.) and subsequent to development with a 80:20:2 mixture of hexane, ethyl ether and formic acid, autoradiography was performed.
A section, which contained ^3H-labelled cholesterol esters and cholesterol, was cut off. Its radioactivity was measured by a liquid scintillation counter and compared with a control, whereby a cholesterol ester accumulation inhibition rate was determined.

The IC50 is the midpoint of a concentration-inhibition curve.

Regarding `COc1cc(/C=C/C(=O)N2CCN(c3ccc(C)c(C)c3)CC2)cc(OC)c1OCc1ccccc1` [Compound 11, N-[4-(3,4-dimethylphenyl)-1,4-diazacyclohexyl]-(2E)-(3,5-dimethoxy-4-benzyloxyphenyl)-2-propenamide], the values for the IC50 in test [1] and in test [2] were 60 nM and 189 nM, respectively. Take `CCCCCCOc1c(OC)cc(/C=C/C(=O)N2CCN(c3ccc(C)cc3C)CC2)cc1OC` [Compound 13]: the IC50 in test [1] came out at 79 nM; in test [2], 200 nM.

Consider `CCCCCCCCCCCCOc1c(OC)cc(/C=C/C(=O)NN2CCN(c3ccc(C)cc3C)CC2)cc1OC` [Compound 19, N-[4-(2,4-dimethylphenyl)-1,4-diazacyclohexyl]-(2E)-3-(3,5-dimethoxy-4-dodecyloxyphenyl) -2-propenamide], for which the 50% inhibitory concentration (IC50) in test [1] is 70 nM; in test [2] (Mus musculus, J774.1, 12 h) it was 250 nM. For `COc1cc(/C=C/C(=O)NCc2ccccc2)cc(OC)c1OCc1ccccc1` [Compound 58, N-benzyl-(2E)-3-(3,5-dimethoxy-4-benzyloxyphenyl)-2-propenamide], in test [2] (Mus musculus, J774.1, 12 h), it took 930 nM to reach half-maximal inhibition (IC50). Regarding `COc1cc(/C=C/C(=O)NCCc2ccccc2)cc(OC)c1OCc1ccccc1` [Compound 59, N-(2-phenyl)ethyl-(2E)-3-(3,5-dimethoxy-4-benzyloxyphenyl)-2-propenamide], in test [2] (Mus musculus, J774.1, 12 h), half-maximal inhibition (IC50) was put at 620 nM. Turning to `COc1cc(/C=C/C(=O)NCCCc2ccccc2)cc(OC)c1OCc1ccccc1` [Compound 60, N-(3-phenyl)propyl-(2E)-3-(3,5-dimethoxy-4-benzyloxyphenyl)-2-propenamide], the IC50 in test [2] (Mus musculus, J774.1, 12 h) turned out to be 870 nM. `COc1cc(/C=C/C(=O)NCCCCc2ccccc2)cc(OC)c1OCc1ccccc1` [Compound 61, N-(4-phenyl)butyl-(2E)-3-(3,5-dimethoxy-4-benzyloxyphenyl)-2-propenamide] returned an IC50 in test [2] (Mus musculus, J774.1, 12 h) of 840 nM. In turn, `COc1cc(/C=C/C(=O)NC2CCN(Cc3ccccc3)CC2)cc(OC)c1OCc1ccccc1` [Compound 62, N-[4-(1-benzyl)piperidino]-(2E)-3-(3,5-dimethoxy-4-benzyloxyphenyl)-2-propenamide] gave an IC50 in test [2] of 840 nM. Consider `COc1cc(/C=C/C(=O)Nc2ccc(C)cc2C)cc(OC)c1OCc1ccccc1` [Compound 63, N-(2,4-dimethylphenyl)-(2E)-3-(3,5-dimethoxy-4-benzyloxyphenyl)-2-propenamide], for which the IC50 in test [1] is 52 nM; in test [2] (Mus musculus, J774.1, 12 h) it was 520 nM. The corresponding values for `COc1cc(/C=C/C(=O)Nc2cccc(C)c2C)cc(OC)c1OCc1ccccc1` [Compound 64, N-(2,3-dimethylphenyl)-(2E)-3-(3,5-dimethoxy-4-benzyloxyphenyl)-2-propenamide] are 35 nM and 900 nM. The corresponding values for `COc1cc(/C=C/C(=O)Nc2ccc(C)c(C)c2)cc(OC)c1OCc1ccccc1` [Compound 65, N-(3,4-dimethylphenyl)-(2E)-3-(3,5-dimethoxy-4-benzyloxyphenyl)-2-propenamide] are 47 nM and 46 nM. On the same counts, the results for `COc1cc(/C=C/C(=O)Nc2c(C)cccc2C)cc(OC)c1OCc1ccccc1` [Compound 66, N-(2,6-dimethylphenyl)-(2E)-3-(3,5-dimethoxy-4-benzyloxyphenyl)-2-propenamide] are 47 nM and 900 nM. `COc1cc(/C=C/C(=O)Nc2c(C)cc(C)cc2C)cc(OC)c1OCc1ccccc1` [Compound 67, N-(2,4,6-trimethylphenyl)-(2E)-3-(3,5-dimethoxy-4-benzyloxyphenyl)-2-propenamide] showed a half-maximal inhibitory concentration (IC50) in test [2] (Mus musculus, J774.1, 12 h) of 870 nM. In the case of `COc1cc(/C=C/C(=O)Nc2c(C(C)C)cccc2C(C)C)cc(OC)c1OCc1ccccc1` [Compound 68, N-(2,6-diisopropylphenyl)-(2E)-3-(3,5-dimethoxy-4-benzyloxyphenyl)-2-propenamide], the IC50 in test [1] came out at 72 nM; in test [2] (Mus musculus, J774.1, 12 h) it was 790 nM. For the compound `COc1cc(/C=C/C(=O)Nc2ccc(C(C)(C)C)cc2)cc(OC)c1OCc1ccccc1` [Compound 69, N-(4-tert-butylphenyl)-(2E)-3-(3,5-dimethoxy-4-benzyloxyphenyl)-2-propenamide], the IC50 in test [2] (Mus musculus, J774.1, 12 h) was 28 nM. In test [2] (Mus musculus, J774.1, 12 h), `COc1cc(/C=C/C(=O)Nc2ccccc2C(C)(C)C)cc(OC)c1OCc1ccccc1` [Compound 70, N-(2-tert-butylphenyl)-(2E)-3-(3,5-dimethoxy-4-benzyloxyphenyl)-2-propenamide] had an IC50 of 840 nM. With `COc1cc(/C=C/C(=O)Nc2ccc(C)cc2)cc(OC)c1OCc1ccccc1` [Compound 71, N-(4-methylphenyl)-(2E)-3-(3,5-dimethoxy-4-benzyloxyphenyl)-2-propenamide], the IC50 in test [1] was 37 nM; in test [2] (Mus musculus, J774.1, 12 h) it was 120 nM. For `COc1ccc(NC(=O)/C=C/c2cc(OC)c(OCc3ccccc3)c(OC)c2)cc1` [Compound 72, N-(4-methoxyphenyl)-(2E)-3-(3,5-dimethoxy-4-benzyloxyphenyl)-2-propenamide], the IC50 in test [1] is 35 nM; in test [2] (Mus musculus, J774.1, 12 h) it was 170 nM. For `COc1cc(/C=C/C(=O)Nc2ccc(OC(C)C)cc2)cc(OC)c1OCc1ccccc1` [Compound 73, N-(4-isopropyloxyphenyl)-(2E)-3-(3,5-dimethoxy-4-benzyloxyphenyl)-2-propenamide], the IC50 in test [2] (Mus musculus, J774.1, 12 h) is 31 nM. As for `COc1cc(/C=C/C(=O)Nc2ccc(N(C)C)cc2)cc(OC)c1OCc1ccccc1` [Compound 74, N-[4-(N',N^'-dimethylamino)phenyl]-(2E)-3-(3,5-dimethoxy-4-benzyloxyphenyl)-2-propenamide], the values for the IC50 in test [1] and in test [2] were 90 nM and 990 nM, respectively. Take `COc1cc(/C=C/C(=O)Nc2ccccc2)cc(OC)c1OCc1ccccc1` [Compound 76, N-phenyl-(2E)-3-(3,5-dimethoxy-4-benzyloxyphenyl)-2-propenamide]: 490 nM corresponded to half-maximal inhibition in test [2] (Mus musculus, J774.1, 12 h) (IC50). Take `COc1cc(/C=C/C(=O)Nc2ccc(Br)cc2)cc(OC)c1OCc1ccccc1` [Compound 79, N-(4-bromophenyl)-(2E)-3-(3,5-dimethoxy-4-benzyloxyphenyl)-2-propenamide]: inhibition in test [2] (Mus musculus, J774.1, 12 h) was half-maximal at 78 nM (IC50). As to `COc1cc(/C=C/C(=O)Nc2ccc(I)cc2)cc(OC)c1OCc1ccccc1` [Compound 80, N-(4-iodophenyl)-(2E)-3-(3,5-dimethoxy-4-benzyloxyphenyl)-2-propenamide], half-maximal inhibition in test [2] (Mus musculus, J774.1, 12 h) (IC50) was put at 43 nM. Still for that read-out and setting: to `COc1cc(/C=C/C(=O)Nc2ccc(Cl)c(Cl)c2)cc(OC)c1OCc1ccccc1` [Compound 81, N-(3,4-dichlorophenyl)-(2E)-3-(3,5-dimethoxy-4-benzyloxyphenyl)-2-propenamide] belongs 150 nM; to `COc1cc(/C=C/C(=O)Nc2ccc(Oc3ccccc3)cc2)cc(OC)c1OCc1ccccc1` [Compound 85, N-(4-phenoxyphenyl)-(2E)-3-(3,5-dimethoxy-4-benzyloxyphenyl)-2-propenamide], 26 nM. In turn, “N-[4-(2,4-dimethylphenyl)-1,4-diazacyclohexyl]-(2E)-3-[3,5-dimethoxy-4-(3-phenyl)propyloxy]-2-propenamide [Compound 23]” had an IC50 in test [2] of 32 nM.
